From patent publication US20030215462A1, “Use of UGT inhibitors to increase bioavailability” (priority 2001, published 2003)
Several values for one entry are separate records, joined by “and”; a condition that tells them apart may be missing. Identical values can stand only once.

Key:
[1] = system: UGT enzymes of pooled human jejunum microsomes; experiment: Inhibition of estradiol (E2) glucuronidation in pooled human jejunum microsomes; format: biochemical; settings: jejunum HJ61, E2 50 μM
Description: (§1) Compounds were eluted using a binary solvent gradient system where solvent A was dilute phosphoric acid (pH 3) and solvent B was 80:20 acetonitrile-methanol. […] Detection was at 280 nm.

UGT1A1 = target: T1, UGT1A1 (Homo sapiens, UniProt P22309); experiment: Inhibition of raloxifene glucuronidation by recombinant UGT1A1 Supersomes; settings: for activity at 15 min / activity at 15 min, 10 µM / activity at 15 min, 25 µM / activity at 15 min, 50 µM: human; for activity at 15 min, 10 µM: inhibitor 10 μM; for activity at 15 min, 25 µM: inhibitor 25 μM; for activity at 15 min, 50 µM: inhibitor 50 μM
T1 sequence (P22309 26-533): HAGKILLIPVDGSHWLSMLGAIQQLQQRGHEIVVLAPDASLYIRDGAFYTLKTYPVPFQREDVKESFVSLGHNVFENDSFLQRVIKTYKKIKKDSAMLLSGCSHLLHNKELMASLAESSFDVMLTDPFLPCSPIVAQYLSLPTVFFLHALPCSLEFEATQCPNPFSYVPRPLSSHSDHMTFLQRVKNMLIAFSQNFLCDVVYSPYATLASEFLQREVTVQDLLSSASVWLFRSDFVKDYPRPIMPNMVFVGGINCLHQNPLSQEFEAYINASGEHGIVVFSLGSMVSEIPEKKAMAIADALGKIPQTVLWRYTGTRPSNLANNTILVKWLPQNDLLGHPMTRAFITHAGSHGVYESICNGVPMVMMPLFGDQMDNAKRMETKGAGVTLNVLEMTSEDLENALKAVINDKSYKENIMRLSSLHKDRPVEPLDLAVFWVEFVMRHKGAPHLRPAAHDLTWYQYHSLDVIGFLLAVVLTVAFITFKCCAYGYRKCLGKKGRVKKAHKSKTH
Protocol: (§2) Compounds were eluted using a binary solvent gradient system. Solvent A was water brought to pH 8 with NH4OH. Solvent B was methanol. Solvent flow rate was 1 ml/min and the column temperature was maintained at 50° C. Detection was at 280 nm. […] The system was then returned to the initial conditions and equilibrated for 3 min.

[2] = system: T2, UGT enzymes of human liver microsomes; experiment: Inhibition of labetalol glucuronidation (LG1, LG2) in human liver microsomes; format: biochemical; settings: labetalol 50 μM
T2 construct: residual metabolism (percentage of control), labetalol LG1; other: labetalol 50 μM; residual metabolism (percentage of control), labetalol LG1; residual metabolism (percentage of control), labetalol LG2; inhi

[3] = system: T3, UGT enzymes of human liver microsomes; experiment: Kinetic and Ki studies of inhibitors of 7-HFC glucuronidation in human liver microsomes; format: biochemical; settings: 7-HFC 20-500 μM; for Km: read-out: Km of 7-HFC glucuronidation (fit of the experiment with this inhibitor)
T3 construct: percentage of control metabolism, 7-HFC glucuronidation; percentage of control metabolism, 7-HFC glucuronidation

[4] = target: T4, UGT enzymes of human liver microsomes (Homo sapiens, UniProt P16662); experiment: Inhibition of zidovudine glucuronidation in human liver microsomes; format: biochemical; settings: liver lot 062101
T4 construct: residual metabolism (percentage of control), zidovudine glucuronidation; other: liver lot 062101; residual metabolism (percentage of control), zidovudine glucuronidation; residual metabolism (percentage of control)
T4 sequence (P16662 1-529): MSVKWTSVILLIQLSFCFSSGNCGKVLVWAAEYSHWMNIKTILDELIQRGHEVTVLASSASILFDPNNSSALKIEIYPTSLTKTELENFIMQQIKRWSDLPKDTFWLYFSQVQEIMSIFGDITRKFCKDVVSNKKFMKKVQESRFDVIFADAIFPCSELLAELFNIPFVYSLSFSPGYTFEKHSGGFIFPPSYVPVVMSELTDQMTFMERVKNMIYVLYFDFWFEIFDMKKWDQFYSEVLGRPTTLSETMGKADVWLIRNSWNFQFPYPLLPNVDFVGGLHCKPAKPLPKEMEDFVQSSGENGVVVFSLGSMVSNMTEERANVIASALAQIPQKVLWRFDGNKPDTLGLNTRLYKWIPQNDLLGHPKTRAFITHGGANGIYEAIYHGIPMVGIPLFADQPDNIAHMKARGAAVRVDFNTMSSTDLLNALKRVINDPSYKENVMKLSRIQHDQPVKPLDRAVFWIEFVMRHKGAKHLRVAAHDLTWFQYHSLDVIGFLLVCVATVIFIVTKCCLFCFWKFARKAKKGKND
Protocol: Compounds were eluted using a binary solvent gradient system where solvent A was dilute phosphoric acid (pH 3) and solvent B was acetonitrile.
Standardized incubations utilized 500 μM zidovudine substrate, 1 mg/ml microsomal protein, 5 mM UDPGA and a 30 min incubation time. […] Int.

UGT1A8 = target: T5, UGT1A8 (Homo sapiens, UniProt Q9HAW9); experiment: Inhibition of raloxifene glucuronidation by recombinant UGT1A8 Supersomes; settings: human, Supersomes with recombinant human UGT1A8, pH 7.5, probe raloxifene 50 μM; for activity at 15 min, 10 µM: inhibitor 10 μM; for activity at 15 min, 50 µM: inhibitor 50 μM
T5 sequence (Q9HAW9 26-530): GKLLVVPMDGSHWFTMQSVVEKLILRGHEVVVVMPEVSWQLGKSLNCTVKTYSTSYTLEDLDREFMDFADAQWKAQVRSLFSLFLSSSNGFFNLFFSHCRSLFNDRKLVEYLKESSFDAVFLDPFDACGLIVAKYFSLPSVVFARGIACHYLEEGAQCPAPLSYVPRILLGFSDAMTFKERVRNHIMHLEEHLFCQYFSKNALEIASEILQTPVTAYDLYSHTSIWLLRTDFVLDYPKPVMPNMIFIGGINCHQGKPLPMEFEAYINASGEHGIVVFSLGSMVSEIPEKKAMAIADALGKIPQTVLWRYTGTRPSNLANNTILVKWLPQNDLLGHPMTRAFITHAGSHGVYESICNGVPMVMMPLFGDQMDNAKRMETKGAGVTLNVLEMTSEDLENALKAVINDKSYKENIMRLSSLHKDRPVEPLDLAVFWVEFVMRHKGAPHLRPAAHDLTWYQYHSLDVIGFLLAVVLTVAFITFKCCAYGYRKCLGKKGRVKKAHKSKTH
Protocol: as §2

[5] = system: T6, UGT enzymes of human liver microsomes; experiment: Inhibition of estradiol (E2) glucuronidation in human liver microsomes; format: biochemical; settings: liver 032101, E2 50 μM
T6 construct: residual metabolism (% of control), E2-3-β-D-glucuronide; other: liver 032101; residual metabolism (% of control), E2-3-β-D-glucuronide
Description: as §1

[6] = Supersomes with recombinant human UGT1A1, pH 7.5, probe raloxifene 50 μM, formation of glucuronide G1
[7] = Supersomes with recombinant human UGT1A1, pH 7.5, probe raloxifene 50 μM, formation of glucuronide G1, % of control metabolism, raloxifene G1, UGT1A1
[8] = Supersomes with recombinant human UGT1A1, pH 7.5, probe raloxifene 50 μM, formation of glucuronide G1, Inhibition of raloxifene glucuronidation, G1, UGT1A1, G1, raloxifene 50 μM, 250 μg/ml Supersomes, 1 mM UDPGA, 15 min
[9] = Supersomes with recombinant human UGT1A1, pH 7.5, probe raloxifene 50 μM, formation of glucuronide G2, % of control metabolism, raloxifene G2, UGT1A1
[10] = recombinant UGT1A1 Supersomes, pH 7.5, probe raloxifene 50 μM (formation of glucuronide G2)
[11] = recombinant UGT1A1 Supersomes, pH 7.5, probe raloxifene 50 μM (formation of glucuronide G2), Inhibition of raloxifene glucuronidation, G2, UGT1A1, G2, raloxifene 50 μM, 250 μg/ml Supersomes, 1 mM UDPGA, 15 min
[12] = formation of glucuronide G1, % of control metabolism, raloxifene G1, UGT1A8
[13] = formation of glucuronide G2, % of control metabolism, raloxifene G2, UGT1A8

| SMILES | activity at 15 min (UGT1A1; [6]) [%] | activity at 15 min, 10 µM (UGT1A1; [7]) [%] | activity at 15 min, 25 µM (UGT1A1; [7]) [%] | activity at 15 min, 50 µM (UGT1A1; [7]) [%] | activity at 15 min, 25 µM (UGT1A1; [8]) [%] | activity at 15 min, 50 µM (UGT1A1; [8]) [%] | activity at 15 min, 10 µM (UGT1A1; [9]) [%] | activity at 15 min, 25 µM (UGT1A1; [9]) [%] | activity at 15 min, 50 µM (UGT1A1; [9]) [%] | activity at 15 min (UGT1A1; [10]) [%] | activity at 15 min, 25 µM (UGT1A1; [11]) [%] | activity at 15 min, 50 µM (UGT1A1; [11]) [%] | Vmax of 7-HFC glucuronidation (fit of the experiment with this inhibitor) [3] [nmol/min/mg] | Km [3] [µM] | residual metabolism (percentage of control), zidovudine glucuronidation ([4]; inhibitor 500 μM) | residual metabolism (% of control), E2-3-β-D-glucuronide ([5]; inhibitor 100 μM) | other results |
| --- | --- | --- | --- | --- | --- | --- | --- | --- | --- | --- | --- | --- | --- | --- | --- | --- | --- |
| CC/C(=C(/CC)c1ccc(O)cc1)c1ccc(O)cc1 [Diethylstilbestrol, reference compound] | 59 | 59 | 26 | 12 | 26 | 12 | 72 | 41 | 27 | 72 | 41 | 27 | 64 ± 4 | 87 ± 7 | 0 (0) % | 69 (1), % | residual metabolism (% of control), E2-3-β-D-glucuronide ([1]; inhibitor 1 μM): 86 (2) %; residual metabolism (% of control), E2-17-β-D-glucuronide ([1]; inhibitor 1 μM): 108 (5) %; residual metabolism (% of control), E2-3-β-D-glucuronide ([1]; inhibitor 10 μM): 53 (4) %; residual metabolism (% of control), E2-17-β-D-glucuronide ([1]; inhibitor 10 μM): 78 (3) %; residual metabolism (% of control), E2-3-β-D-glucuronide ([1]; inhibitor 100 μM): 5 (1) %; residual metabolism (% of control), E2-17-β-D-glucuronide ([1]; inhibitor 100 μM): 24 (4) %; residual metabolism (percentage of control), labetalol LG1 ([2]; inhibitor 50 μM): 23 (3) %; residual metabolism (percentage of control), labetalol LG2 ([2]; inhibitor 50 μM): 29 (8) %; residual metabolism (percentage of control), labetalol LG1 ([2]; inhibitor 100 μM): 1 (3) % and 5 (3) %; residual metabolism (percentage of control), labetalol LG2 ([2]; inhibitor 100 μM): 11 (1) % and 8 (1) %; residual metabolism (percentage of control), zidovudine glucuronidation ([4]; inhibitor 50 μM): 50 (4) % and 44 (2) %; residual metabolism (percentage of control), zidovudine glucuronidation ([4]; inhibitor 100 μM): 34 (4) %; residual metabolism (percentage of control), zidovudine glucuronidation ([4]; inhibitor 200 μM): 15 (1) %; activity at 15 min, 10 µM (UGT1A8; [12]): 156%; activity at 15 min, 10 µM (UGT1A8; [13]): 73% |
| CCCCCCCCOC(=O)c1cc(O)c(O)c(O)c1 [Octyl gallate] | 65 | 65 | 37 | 18 | 37 | 18 | 75 | 51 | 31 | 75 | 51 | 31 | 57 ± 3 | 81 ± 7 | 54 (3) % | 33 (2) % | inhibition of raloxifene glucuronidation, in words (UGT1A1; UGT1A1): excellent inhibitor; residual metabolism (percentage of control), zidovudine glucuronidation ([4]; inhibitor 1000 μM): 17 (1) %; activity at 15 min, 50 µM (UGT1A8; [12]): 116%; activity at 15 min, 50 µM (UGT1A8; [13]): 95%; residual metabolism (% of control), E2-3-β-D-glucuronide ([5]; inhibitor 50 μM): 53 (1) % |
